In PubChem BioAssay (NCI) one finds TGI data, which are given here for 17 molecules.

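All cell lines were grown in 96-well plates and treated with compound for 48 hours. The concentration for full growth arrest is given as TGI.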

Among the test systems are 786-0 renal; A498 renal; BT-549 breast; COLO 205 colon; DU-145 prostate; SF-539 CNS; SNB-19 CNS; SW-620 colon; T-47D breast; HS 578T breast.
What all share (experiment): inhibition of tumour cell growth, NCI panel, 48 h

On to `Cc1c(C)c2ccc(O)cc2[nH]c1=O`, for which the TGI with 786-0 renal, in the test with A498 renal, in the test with BT-549 breast, in the test on COLO 205 colon, in the test with DU-145 prostate and in the test with SF-539 CNS was > 100 µM each time. Also, the TGI in the test with SNB-19 CNS, in the test on SW-620 colon and in the test on T-47D breast was > 100 µM each time.

`Clc1ccc(N=Cc2cc3cc(Br)ccc3nc2Cl)cc1`: the TGI with 786-0 renal, in the test with BT-549 breast, with COLO 205 colon, in the test on DU-145 prostate, in the test with SF-539 CNS and with SW-620 colon was > 50 µM throughout. Also, the TGI in the test on T-47D breast was > 50 µM.

In the case of `O=C1NCN(c2ccccc2)C12CCN(CCCSc1ccc(F)cc1)CC2`, the TGI was > 100 µM with 786-0 renal; 42.9 µM in the test on A498 renal; 3.24 µM in the test with COLO 205 colon; > 100 µM in the test on DU-145 prostate; > 100 µM in the test with HS 578T breast; 58.5 µM in the test on SF-539 CNS. Further, the TGI in the test with SNB-19 CNS, with SW-620 colon and in the test with T-47D breast was > 100 µM throughout.

Turning to `C=CCn1c(=S)sc2c(=O)[nH]cnc21`, the TGI in the test on 786-0 renal, with A498 renal, in the test on COLO 205 colon, in the test with SF-539 CNS, with SNB-19 CNS and in the test with SW-620 colon was > 100 µM each time.

Take `O=C(Nc1ccc(F)cc1)c1cc2ccc(O)cc2oc1=Nc1cccc(F)c1`: the TGI was > 100 µM in the test with 786-0 renal; > 100 µM in the test on A498 renal; 75.4 µM in the test on BT-549 breast; > 100 µM with COLO 205 colon; > 100 µM in the test with DU-145 prostate; > 100 µM with SF-539 CNS. Besides, the TGI in the test with SW-620 colon and with T-47D breast was > 100 µM in each case.

Consider `COc1ccc(C2S/C(=C\c3cccc([N+](=O)[O-])c3)C(=O)N2NC(=O)Cc2ccccc2)cc1` (stereo unspecified), for which the TGI in the test with 786-0 renal, in the test with A498 renal, with COLO 205 colon, in the test with SF-539 CNS and in the test with SW-620 colon was > 100 µM in each case.

Consider `COc1ccc(C2C3=C(CCCC3=O)N(c3ccccc3)C3=C2C(=O)CCC3)cc1`, for which the TGI with 786-0 renal, in the test on A498 renal, with BT-549 breast, in the test on HS 578T breast, with SF-539 CNS and in the test on SNB-19 CNS was > 100 µM each time. The TGI in the test with SW-620 colon was > 100 µM.

Regarding `O=C1CSc2ccncc2N1`, the TGI in the test with 786-0 renal, in the test on A498 renal, in the test on COLO 205 colon, in the test with SF-539 CNS, in the test with SNB-19 CNS and in the test on SW-620 colon was > 100 µM throughout.

On to `O=C1C=Cc2c(I)sc(I)c21`, for which the TGI was 22.8 µM in the test with 786-0 renal; > 100 µM with A498 renal; 41.5 µM with BT-549 breast; 36.8 µM in the test with COLO 205 colon; > 100 µM in the test with DU-145 prostate; 57.2 µM in the test on SF-539 CNS. For the same molecule, the TGI came out at 38.1 µM in the test on SW-620 colon and 41.4 µM with T-47D breast.

Take `CCCN1CN(C(C(=O)N[C@@H]2C(=O)N3C(C(=O)O)=C(C)CSC23)c2ccccc2)CSC1=S` (stereo partly specified): the TGI with 786-0 renal, in the test with A498 renal, in the test on COLO 205 colon, in the test with SF-539 CNS and in the test on SNB-19 CNS was > 100 µM in each case.

As for `Cc1ccccc1Nc1cn(CCOc2ccccc2)c(=O)n(CCOc2ccccc2)c1=O`, the TGI in the test on 786-0 renal, in the test with A498 renal, in the test on BT-549 breast, in the test on COLO 205 colon, in the test with DU-145 prostate and in the test with HS 578T breast was > 100 µM in each case. Also, the TGI in the test on SW-620 colon is > 100 µM.

In the case of `COc1ccc(-n2nnnc2C2(Nc3ccccc3)CCN(Cc3ccccc3)CC2)cc1`, the TGI is 28 µM in the test with 786-0 renal; 48.7 µM with A498 renal; 20 µM in the test on COLO 205 colon; > 100 µM with DU-145 prostate; 28.8 µM in the test with HS 578T breast; 34.6 µM with SF-539 CNS. Moreover, the TGI was determined as 68.5 µM with SNB-19 CNS, 38.3 µM with SW-620 colon and 45.2 µM in the test on T-47D breast.

Turning to `CC(C)(Cc1ccccc1)Cc1cc(O)ccc1O`, the TGI with 786-0 renal is 29 µM; in the test on A498 renal, 47.6 µM; with BT-549 breast, 74.1 µM; in the test on COLO 205 colon, 39.1 µM; in the test on DU-145 prostate, > 100 µM; with SF-539 CNS, 27.1 µM. For the same molecule, the TGI in the test with SNB-19 CNS turned out to be 48.7 µM; in the test on SW-620 colon, 49.6 µM; with T-47D breast, 23.1 µM.

On to `C[C@]12CCC(=O)C=C1CC[C@@H]1[C@@H]2CC[C@]2(C)C(=O)/C(=C\c3ccccc3)C[C@@H]12`, for which the TGI in the test with 786-0 renal is > 66.8 µM; with A498 renal it was 42.4 µM; in the test with BT-549 breast, 72.6 µM; in the test on COLO 205 colon, 55.9 µM; in the test on DU-145 prostate, > 100 µM; with SF-539 CNS, > 63.6 µM. The values for the TGI in the test with SNB-19 CNS, in the test with SW-620 colon and with T-47D breast were > 100 µM, > 56.9 µM and > 86.7 µM, respectively.

As to `COc1ccc(N2C(=O)CC(c3c[nH]c4ccccc34)C2=O)cc1` (stereo unspecified), the TGI with 786-0 renal, in the test on A498 renal, in the test with BT-549 breast, with COLO 205 colon, in the test with DU-145 prostate and with HS 578T breast was > 100 µM in each case. Moreover, the TGI in the test with SF-539 CNS, with SNB-19 CNS and in the test with SW-620 colon was > 100 µM each time.

For `Cc1cccc(C(O)c2ccccn2)c1O` (stereo unspecified), the TGI with BT-549 breast, in the test with COLO 205 colon, in the test with DU-145 prostate, in the test on HS 578T breast, with SF-539 CNS and in the test with SNB-19 CNS was > 100 µM each time. Besides, the TGI in the test with SW-620 colon and in the test on T-47D breast was > 100 µM throughout.

Take `CCOC(=O)c1cc(Cl)ccc1OC(N)=O`: the TGI in the test on A498 renal, with COLO 205 colon, with SF-539 CNS, in the test with SNB-19 CNS and in the test on SW-620 colon was > 100 µM in each case.
